Molecules are shown by their SMILES.

Experimental findings from article PMC12783734, “Carboxymethylcytosine is a natural base modification and a handle for bacteriophage DNA hypermodification” (Nature Communications, 2025) are described below.

The assay has as its target T1, EcCmoA (Escherichia coli, UniProt P76290).
T1 construct: gene cmoA; E. coli BL21(DE3)
Kind of assay: HPLC / LC-MS of Cx-SAM formation. The format is biochemical. The conditions noted are these: co-substrate prephenate; sodium phosphate pH 6.8; 37 C.

T1 sequence (P76290 whole entry): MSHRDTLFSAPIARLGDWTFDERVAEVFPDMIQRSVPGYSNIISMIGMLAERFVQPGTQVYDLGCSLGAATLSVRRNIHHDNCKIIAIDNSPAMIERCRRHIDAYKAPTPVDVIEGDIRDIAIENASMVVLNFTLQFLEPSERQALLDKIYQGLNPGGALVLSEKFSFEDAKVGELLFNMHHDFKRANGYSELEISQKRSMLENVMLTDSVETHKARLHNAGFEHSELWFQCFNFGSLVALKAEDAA

Regarding `C[S+](CC[C@H](N)C(=O)O)C[C@H]1O[C@@H](n2cnc3c(N)ncnc32)[C@H](O)[C@@H]1O` (stereo partly shown) [SAM], the “HPLC / LC-MS of Cx-SAM formation” value was “Incubation with either SpCmoA or EcCmoA led to a decrease in the SAM peak”.
